How the values were obtained:
[1] = test system: Candida albicans; experiment: Vaginal candidiasis in female Charles River mice; type: in vivo; conditions: mice infected vaginally, 0.025 mL daily for 4 days from 6 hours post-infection, formula I 0.5% (w/v), chlortrimazole 1% (w/v)
Description: Mice, infected vaginally with Candida albicans, were treated with 0.025 mL of the above treatments, commencing 6 hours post-infection, daily for 4 days.

[2] = test system: Rodent; experiment: 4 Hour Allergic Synovitis (rodent inflammation model); type: in vivo; conditions: Prednisolone 0.05 mg/kg
[3] = test system: Rodent; experiment: 4 Hour Allergic Pleuritis (rodent inflammation model); type: in vivo; conditions: Prednisolone 0.004 mg/kg
[4] = test system: Rodent; experiment: 4 Hour Carrageenan Pleuritis (rodent inflammation model); type: in vivo; conditions: Prednisolone 0.02 mg/kg
[5] = test system: roundworms, threadworms, and whipworms; conditions: reported; U.S. Pat. No. 3,075,975 and 3,085,935; cited from earlier work

## Clc1ccccc1C(c1ccccc1)(c1ccccc1)n1ccnc1 [Chlortrimazole]
[1]; mice cleared/treated
  Cleared: 7/10
[1]; mice improved/treated
  Improved: 2/10

## C[C@]12C=CC(=O)C=C1CC[C@@H]1[C@@H]2[C@@H](O)C[C@@]2(C)[C@H]1CC[C@]2(O)C(=O)CO [Prednisolone]
[2]
  % Inhibition Edema: 36%
  % Inhibition Neutrophils: 37%
[3]
  % Inhibition Edema: 33%
  % Inhibition Neutrophils: 25%
[4]
  % Inhibition Edema: 31%
  % Inhibition Neutrophils: 21%

## CC[n+]1c(/C=C/c2ccc(N3CCCC3)cc2)cccc1/C=C/c1ccc(N2CCCC2)cc1.[I-] [Stilbazium iodide]
[5]
  Anthelmintic efficacy: effective against roundworms, threadworms, and whipworms
